Like-named read-outs stand apart in the source and are kept apart here.
Legend:
[1] = target: interaction between PB1 and PA (Influenza A virus, UniProt P03433); test: biochemical; type: binding; details: for IC50: calculated from inhibition at maximum obtainable concentration where solubility too low, read-out: IC50 [μM] (ELISA); for inhibition at 1000 µM: highest concentration used, read-out: Max. Inhibition (ELISA) at 1000 μM
RSV (Long strain) = test: RSV induced cell death reduction in HEp-2 cells; type: cell-based, respiratory syncytial virus; details: for RSV activity, Maximum inhibition (in words): serial dilution 100 to 0.14 μM, 72 h; for inhibition at 33 µM: HEp-2, read-out: RSV activity, Maximum inhibition
[2] = system: influenza virus (A/WSN/33); test: plaque reduction assay, influenza virus in MDCK cells; type: cell-based
[3] = human respiratory syncytial virus, HEp-2
[4] = human respiratory syncytial virus, HEp-2, read-out: RSV activity, Maximum inhibition
[5] = human respiratory syncytial virus

Structure (SMILES): COc1ccc(CSc2ccc([N+](=O)[O-])c3nonc23)cc1 [PKE060, 4-[(4-methoxybenzyl)thio]-7-nitro-2,1,3-benzoxadiazole]
- Active in ELISA ([1]; prescreening): Yes

Structure (SMILES): COc1ccc(S(=O)(=O)OCCSc2ccc([N+](=O)[O-])c3nonc23)cc1 [PKE061, 2-[(7-nitro-2,1,3-benzoxadiazol-4-yl)thio]ethyl 4-methoxybenzene-1-sulfonate]
- IC50 [1]: > 1000 µM
- inhibition at 1000 µM [1]: 37%
- Active in ELISA ([1]; prescreening): Yes
- RSV activity, Maximum inhibition (in words) (RSV (Long strain)): inactive

Structure (SMILES): Cc1ccc(Sc2ccc([N+](=O)[O-])c3nonc23)cc1 [PKE068, 4-[(4-methylphenyl)thio]-7-nitro-2,1,3-benzoxadiazole]
- IC50 [1]: > 1000 µM
- inhibition at 1000 µM [1]: 46%
- Active in ELISA ([1]; prescreening): Yes

Structure (SMILES): COc1ccc(Nc2ccc([N+](=O)[O-])c3nonc23)cc1 [PKE069, N4-(4-methoxyphenyl)-7-nitro-2,1,3-benzoxadiazol-4-amine]
- Active in ELISA ([1]; prescreening): No
- RSV activity, Maximum inhibition (in words) (RSV (Long strain)): inactive

Structure (SMILES): O=[N+]([O-])c1ccc(Nc2ccc(F)cc2)c2nonc12 [PKE070, N4-(4-fluorophenyl)-7-nitro-2,1,3-benzoxadiazol-4-amine]
- Active in ELISA ([1]; prescreening): No
- inhibition of RSV replication (summary in words) (RSV (Long strain)): effective
- IC50 (RSV (Long strain); [3]): 4 µM
- inhibition at 11 µM (RSV (Long strain); [4]): 75%

Structure (SMILES): O=[N+]([O-])c1ccc(Nc2cccc(F)c2)c2nonc12 [PKE071, N4-(3-fluorophenyl)-7-nitro-2,1,3-benzoxadiazol-4-amine]
- Active in ELISA ([1]; prescreening): No
- inhibition of RSV replication (summary in words) (RSV (Long strain)): effective
- IC50 (RSV (Long strain); [3]): 4 µM
- inhibition at 11 µM (RSV (Long strain); [4]): 73%

Structure (SMILES): O=[N+]([O-])c1ccc(N2CCCC2)c2nonc12 [PKE072, 4-nitro-7-tetrahydro-1H-pyrrol-1-yl-2,1,3-benzoxadiazole]
- Active in ELISA [1]: No
- inhibition of RSV replication (summary in words) (RSV (Long strain)): effective
- inhibition at 33 µM (RSV (Long strain); [5]): 44%

Structure (SMILES): O=[N+]([O-])c1ccc(NCc2cccs2)c2nonc12 [PKE073, N4-(2-thienylmethyl)-7-nitro-2,1,3-benzoxadiazol-4-amine]
- Active in ELISA [1]: No
- inhibition of RSV replication (summary in words) (RSV (Long strain)): effective
- inhibition at 33 µM (RSV (Long strain); [5]): 42%

Structure (SMILES): Cc1ccc(Nc2ccc([N+](=O)[O-])c3nonc23)cc1 [PKE074, N4-(4-methylphenyl)-7-nitro-2,1,3-benzoxadiazol-4-amine]
- Active in ELISA ([1]; prescreening): No

Structure (SMILES): O=[N+]([O-])c1ccc(Sc2ccc(Cl)cc2Cl)c2nonc12 [PKE075, 4-[(2,4-dichlorophenyl)thio]-7-nitro-2,1,3-benzoxadiazole]
- IC50 [1]: > 1000 µM
- inhibition at 1000 µM [1]: 35%
- Active in ELISA ([1]; prescreening): Yes

Structure (SMILES): O=[N+]([O-])c1ccc(SCCO)c2nonc12 [PKE076, 2-[(7-nitro-2,1,3-benzoxadiazol-4-yl)thio]ethan-1-ol]
- RSV activity, Maximum inhibition (in words) (RSV (Long strain)): inactive

Structure (SMILES): Cc1ccc(CSc2ccc([N+](=O)[O-])c3nonc23)cc1 [PKE077, 4-[(4-methylbenzyl)thio]-7-nitro-2,1,3-benzoxadiazole]
- IC50 [1]: > 1000 µM
- inhibition at 1000 µM [1]: 33%
- Active in ELISA ([1]; prescreening): Yes
- RSV activity, Maximum inhibition (in words) (RSV (Long strain)): inactive

Structure (SMILES): Cc1cccc(Nc2ccc([N+](=O)[O-])c3nonc23)c1 [PKE078, N4-(3-methylphenyl)-7-nitro-2,1,3-benzoxadiazol-4-amine]
- Active in ELISA ([1]; prescreening): No
- inhibition of RSV replication (summary in words) (RSV (Long strain)): effective
- IC50 (RSV (Long strain); [3]): 6 µM
- inhibition at 11 µM (RSV (Long strain); [4]): 56%

Structure (SMILES): O=[N+]([O-])c1ccc(Sc2ccc(F)cc2)c2nonc12 [PKE079, 4-[(4-fluorophenyl)thio]-7-nitro-2,1,3-benzoxadiazole]
- IC50 [1]: 125 µM
- Active in ELISA ([1]; prescreening): Yes
- inhibition of the replication of influenza virus, particularly influenza A (summary in words) [2]: effectively inhibited
- inhibition of RSV replication (summary in words) (RSV (Long strain)): effective
- IC50 (RSV (Long strain); [3]): 7 µM
- inhibition at 11 µM (RSV (Long strain); [4]): 53%

Structure (SMILES): O=[N+]([O-])c1ccc(Sc2cccc(Cl)c2)c2nonc12 [PKE080, 4-[(3-chlorophenyl)thio]-7-nitro-2,1,3-benzoxadiazole]
- IC50 [1]: 60 µM
- Active in ELISA ([1]; prescreening): Yes

Structure (SMILES): O=C(OCCSc1ccc([N+](=O)[O-])c2nonc12)c1ccc(Cl)cc1Cl [PKE081, 2-[(7-nitro-2,1,3-benzoxadiazol-4-yl)thio]ethyl 2,4-dichlorobenzoate]
- Active in ELISA ([1]; prescreening): No

Structure (SMILES): COc1ccc(C(=O)OCCSc2ccc([N+](=O)[O-])c3nonc23)cc1 [PKE082, 2-[(7-nitro-2,1,3-benzoxadiazol-4-yl)thio]ethyl-4-methoxybenzoate]
- IC50 [1]: 100 µM
- Active in ELISA ([1]; prescreening): Yes

Structure (SMILES): O=C(OCCSc1ccc([N+](=O)[O-])c2nonc12)c1ccccc1 [PKE083, 2-[(7-nitro-2,1,3-benzoxadiazol-4-yl)thio]ethyl benzoate]
- Active in ELISA ([1]; prescreening): No
- RSV activity, Maximum inhibition (in words) (RSV (Long strain)): inactive

Structure (SMILES): O=[N+]([O-])c1ccc(SCc2ccccc2)c2nonc12 [PKE107, 4-nitro-7-(phenylmethylsulfanyl)-2,1,3-benzoxadiazole]
- IC50 [1]: 125 µM
- Active in ELISA ([1]; prescreening): Yes
- inhibition of the replication of influenza virus, particularly influenza A (summary in words) [2]: effectively inhibited
- RSV activity, Maximum inhibition (in words) (RSV (Long strain)): inactive

Structure (SMILES): O=[N+]([O-])c1ccc(S(=O)(=O)Cc2ccccc2)c2nonc12 [PKE108, 4-nitro-7-(phenylmethylsulfonyl)-2,1,3-benzoxadiazole]
- IC50 [1]: 500 µM
- Active in ELISA ([1]; prescreening): Yes
- inhibition of the replication of influenza virus, particularly influenza A (summary in words) [2]: effectively inhibited
- RSV activity, Maximum inhibition (in words) (RSV (Long strain)): inactive

Structure (SMILES): Nc1nc(Sc2ccc([N+](=O)[O-])c3nonc23)c2[nH]cnc2n1 [PKE110, 6-[(4-nitro-2,1,3-benzoxadiazol-7-yl)sulfanyl]-7H-purin-2-amine]
- Active in ELISA ([1]; prescreening): No
- RSV activity, Maximum inhibition (in words) (RSV (Long strain)): inactive

Structure (SMILES): O=[N+]([O-])c1ccc(Nc2ccccc2)c2nonc12 [PKE118, 4-nitro-N-phenyl-2,1,3-benzoxadiazol-7-amine]
- Active in ELISA ([1]; prescreening): No
- inhibition of RSV replication (summary in words) (RSV (Long strain)): effective
- inhibition at 11 µM (RSV (Long strain); [4]): 44%

Structure (SMILES): COc1ccc(Nc2ccc([N+](=O)[O-])c3nonc23)cc1 [PKE119, N-(4-methoxyphenyl)-4-nitro-2,1,3-benzoxadiazol-7-amine]
- inhibition of RSV replication (summary in words) (RSV (Long strain)): effective
- inhibition at 11 µM (RSV (Long strain); [4]): 21%

Structure (SMILES): O=[N+]([O-])c1ccc(Nc2ccc(Cl)cc2)c2nonc12 [PKE120, N-(4-chlorophenyl)-4-nitro-2,1,3-benzoxadiazol-7-amine]
- Active in ELISA ([1]; prescreening): No
- inhibition of RSV replication (summary in words) (RSV (Long strain)): effective
- IC50 (RSV (Long strain); [3]): 2 µM
- inhibition at 3.7 µM (RSV (Long strain); human respiratory syncytial virus, HEp-2, at 3.7 μM, read-out: RSV activity, Maximum inhibition): 67%

Structure (SMILES): COc1ccc(CNc2ccc([N+](=O)[O-])c3nonc23)cc1 [PKE130, N-[(4-methoxyphenyl)methyl]-4-nitro-2,1,3-benzoxadiazol-7-amine]
- Active in ELISA [1]: No
- inhibition of RSV replication (summary in words) (RSV (Long strain)): effective
- inhibition at 33 µM (RSV (Long strain); [5]): 48%

Structure (SMILES): Cc1ccccc1Nc1ccc([N+](=O)[O-])c2nonc12 [PKE131, N-(2-methylphenyl)-4-nitro-2,1,3-benzoxadiazol-7-amine]
- Active in ELISA ([1]; prescreening): No
- inhibition of RSV replication (summary in words) (RSV (Long strain)): effective
- inhibition at 11 µM (RSV (Long strain); [4]): 48%

Structure (SMILES): O=[N+]([O-])c1ccc(N2CCN(Cc3ccccc3)CC2)c2c1no[n+]2[O-] [PKE133, 4-nitro-1-oxido-7-[4-(phenylmethyl)piperazin-1-yl]-2,1,3-benzoxadiazol-1-ium]
- Active in ELISA ([1]; prescreening): No
- RSV activity, Maximum inhibition (in words) (RSV (Long strain)): inactive

Structure (SMILES): CCCCN1CCN(c2ccc([N+](=O)[O-])c3no[n+]([O-])c23)CC1 [PKE134, 7-(4-butylpiperazin-1-yl)-4-nitro-1-oxido-2,1,3-benzoxadiazol-1-ium]
- Active in ELISA ([1]; prescreening): No
- RSV activity, Maximum inhibition (in words) (RSV (Long strain)): inactive

Structure (SMILES): O=[N+]([O-])c1ccc(N2CCN(c3ccccc3)CC2)c2nonc12 [PKE135, 4-nitro-7-(4-phenylpiperazin-1-yl)-2,1,3-benzoxadiazole]
- Active in ELISA ([1]; prescreening): No
- RSV activity, Maximum inhibition (in words) (RSV (Long strain)): inactive

Structure (SMILES): CCN(CC)CCCNc1ccc([N+](=O)[O-])c2no[n+]([O-])c12 [PKE136, N,N-diethyl-N′-(4-nitro-1-oxido-2,1,3-benzoxadiazol-1-ium-7-yl)propane-1,3-diamine]
- Active in ELISA ([1]; prescreening): No
- RSV activity, Maximum inhibition (in words) (RSV (Long strain)): inactive

Structure (SMILES): O=[N+]([O-])c1ccc(Sc2ncnc3c2ncn3C2OC(CO)C(O)C2O)c2nonc12 (centres unmarked) [PKE137, 2-(hydroxymethyl)-5-[6-[(4-nitro-2,1,3-benzoxadiazol-7-yl)sulfanyl]purin-9-yl]oxolane-3,4-diol]
- IC50 [1]: 200 µM
- Active in ELISA ([1]; prescreening): Yes
- inhibition of the replication of influenza virus, particularly influenza A (summary in words) [2]: effectively inhibited
- RSV activity, Maximum inhibition (in words) (RSV (Long strain)): inactive

Structure (SMILES): O=[N+]([O-])c1ccc(Sc2ncnc3nc[nH]c23)c2nonc12 [PKE139, 4-nitro-7-(7H-purin-6-ylsulfanyl)-2,1,3-benzoxadiazole]
- Active in ELISA ([1]; prescreening): No
- RSV activity, Maximum inhibition (in words) (RSV (Long strain)): inactive

Structure (SMILES): CC(C)(C)c1csc(-c2ccc3nonc3c2)n1 [PKE140, 5-[4-(tert-butyl)-1,3-thiazol-2-yl]-2,1,3-benzoxadiazole]
- IC50 [1]: > 1000 µM
- inhibition at 1000 µM [1]: 34%
- Active in ELISA ([1]; prescreening): Yes
- RSV activity, Maximum inhibition (in words) (RSV (Long strain)): inactive

Structure (SMILES): O=[N+]([O-])c1c(NCc2ccccc2)ccc2nonc12 [PKE190, N-benzyl-4-nitro-2,1,3-benzoxadiazol-5-amine]
- IC50 [1]: > 1000 µM
- inhibition at 1000 µM [1]: 37%
- Active in ELISA ([1]; prescreening): Yes
- RSV activity, Maximum inhibition (in words) (RSV (Long strain)): inactive

Structure (SMILES): CCN(CC)c1cc(Cl)c2nonc2c1[N+](=O)[O-] [PKE191, 7-chloro-N,N-diethyl-4-nitro-2,1,3-benzoxadiazol-5-amine]
- Active in ELISA ([1]; prescreening): No
- inhibition of RSV replication (summary in words) (RSV (Long strain)): effective
- inhibition at 11 µM (RSV (Long strain); [4]): 20%

Structure (SMILES): O=c1[nH]nc(Sc2ccccc2)c2nncn12 [PKE217, 8-phenylsulfanyl-6H-[1,2,4]triazolo[4,3-d][1,2,4]triazin-5-one]
- Active in ELISA ([1]; prescreening): No
